The target in data set [1] is Serine/threonine-protein kinase PLK1 (Homo sapiens, UniProt P53350). The experiment in a line: Inhibition of PLK1 (unknown origin) by FRET-based homogenous assay.
The target in data set [2] is T1, Serine/threonine-protein kinase PLK4 (Homo sapiens, UniProt O00444).
T1 sequence (O00444 whole entry): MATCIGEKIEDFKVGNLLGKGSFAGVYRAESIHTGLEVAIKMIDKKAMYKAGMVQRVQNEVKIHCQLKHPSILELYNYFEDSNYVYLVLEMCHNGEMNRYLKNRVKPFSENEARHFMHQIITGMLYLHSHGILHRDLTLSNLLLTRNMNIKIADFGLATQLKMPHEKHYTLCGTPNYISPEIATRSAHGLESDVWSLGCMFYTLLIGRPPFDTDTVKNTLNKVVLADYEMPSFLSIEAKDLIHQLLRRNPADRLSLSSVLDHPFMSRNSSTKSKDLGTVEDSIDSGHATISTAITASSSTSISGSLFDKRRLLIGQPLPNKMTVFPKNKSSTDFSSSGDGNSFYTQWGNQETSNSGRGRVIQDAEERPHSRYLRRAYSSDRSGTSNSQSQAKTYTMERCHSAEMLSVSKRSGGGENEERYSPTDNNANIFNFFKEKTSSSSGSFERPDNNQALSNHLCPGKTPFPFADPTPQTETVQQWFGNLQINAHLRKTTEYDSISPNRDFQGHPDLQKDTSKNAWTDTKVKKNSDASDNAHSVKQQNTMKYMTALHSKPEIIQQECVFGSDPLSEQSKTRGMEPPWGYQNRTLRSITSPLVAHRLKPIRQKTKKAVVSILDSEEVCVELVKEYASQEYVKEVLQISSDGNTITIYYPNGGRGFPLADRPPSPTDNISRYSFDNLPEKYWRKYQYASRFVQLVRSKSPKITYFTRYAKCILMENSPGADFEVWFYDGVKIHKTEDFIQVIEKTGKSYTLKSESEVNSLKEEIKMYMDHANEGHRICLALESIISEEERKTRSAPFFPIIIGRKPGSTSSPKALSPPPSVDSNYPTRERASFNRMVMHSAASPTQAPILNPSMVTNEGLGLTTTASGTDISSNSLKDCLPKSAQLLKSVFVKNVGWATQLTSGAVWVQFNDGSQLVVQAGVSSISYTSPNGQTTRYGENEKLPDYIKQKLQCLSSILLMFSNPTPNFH
The experiment in a line: Inhibition of GST-tagged human PLK4 (1-391 residues) phosphorylation by ELISA. A general note: ELISA stands for enzyme-linked immunosorbent assay.

The next data set has as its target T2, Aurora kinase A (Homo sapiens, UniProt O14965).
T2 sequence (O14965 whole entry): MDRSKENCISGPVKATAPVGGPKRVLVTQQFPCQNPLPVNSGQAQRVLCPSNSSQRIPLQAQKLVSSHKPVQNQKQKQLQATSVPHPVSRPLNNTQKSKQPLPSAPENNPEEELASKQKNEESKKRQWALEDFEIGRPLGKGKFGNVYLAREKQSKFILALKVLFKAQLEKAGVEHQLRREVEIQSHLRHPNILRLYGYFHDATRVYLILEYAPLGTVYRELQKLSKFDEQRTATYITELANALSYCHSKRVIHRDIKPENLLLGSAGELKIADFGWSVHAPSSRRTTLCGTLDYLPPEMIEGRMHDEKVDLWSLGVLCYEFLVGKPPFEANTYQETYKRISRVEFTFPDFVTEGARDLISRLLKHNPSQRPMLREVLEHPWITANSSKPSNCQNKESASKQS
In words: Inhibition of Aurora A (unknown origin) by FRET-based homogenous assay.

A further data set concerns the target Aurora kinase B (Homo sapiens, UniProt Q96GD4). In words: Inhibition of Aurora B (unknown origin) by FRET-based homogenous assay.
Data set [3] addresses Serine/threonine-protein kinase Chk2 (Homo sapiens, UniProt O96017). In words: Inhibition of CHK2 (unknown origin) by FRET-based homogenous assay.
Another data set has as its target Cytochrome P450 2C19 (Homo sapiens, UniProt P33261). The experiment in a line: Inhibition of CYP2C19 in supersomes (unknown origin) using MFC as substrate after 30 mins. It counts as ADME.
The target in the next data set is Cytochrome P450 3A4 (Homo sapiens, UniProt P08684). The experiment in a line: Inhibition of CYP3A4 in supersomes (unknown origin) using 7-benzyloxy-4-trifluoromethylcoumarin as substrate after 30 mins. It counts as ADME.
The next data set addresses Cytochrome P450 2C9 (Homo sapiens, UniProt P11712). The experiment in a line: Inhibition of CYP2C9 in supersomes (unknown origin) using MFC as substrate after 30 mins. In kind it is ADME.
A further data set concerns the target T3, Cytochrome P450 1A2 (Homo sapiens, UniProt P05177).
T3 sequence (P05177 whole entry): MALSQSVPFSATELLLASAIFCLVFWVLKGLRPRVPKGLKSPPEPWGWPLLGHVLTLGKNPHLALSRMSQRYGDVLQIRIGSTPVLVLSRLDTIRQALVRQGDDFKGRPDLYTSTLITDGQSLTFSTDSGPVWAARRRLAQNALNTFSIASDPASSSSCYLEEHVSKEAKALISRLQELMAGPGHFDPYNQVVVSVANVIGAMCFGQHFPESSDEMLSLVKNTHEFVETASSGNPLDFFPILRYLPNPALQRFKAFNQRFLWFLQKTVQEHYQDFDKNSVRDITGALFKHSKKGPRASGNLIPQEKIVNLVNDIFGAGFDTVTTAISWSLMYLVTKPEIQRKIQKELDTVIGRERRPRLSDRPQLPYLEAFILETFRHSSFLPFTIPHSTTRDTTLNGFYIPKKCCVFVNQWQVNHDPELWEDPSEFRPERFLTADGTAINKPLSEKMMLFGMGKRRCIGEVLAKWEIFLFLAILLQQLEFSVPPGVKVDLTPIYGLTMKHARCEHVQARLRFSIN
The experiment in a line: Inhibition of CYP1A2 in supersomes (unknown origin) using CEC as substrate after 30 mins. It counts as ADME.

Another data set deals with Cytochrome P450 2D6 (Homo sapiens, UniProt P10635). In words: Inhibition of CYP2D6 in supersomes (unknown origin) using AMMC as substrate after 30 mins. It counts as ADME.
Data set [4] in a line: Permeability of the compound at pH 7.4 by PAMPA. In kind it is ADME. The note with it: read-out: permeability. In general terms: PAMPA measures passive passage across an artificial lipid membrane.
A short description of data set [5]: Solubility of the compound at pH 7.4. It counts as physicochemical. The note with it: buffer.
A short description of data set [6]: Cell cycle arrest in human HCT116 cells assessed as accumulation at sub-G1 phase at 1 uM after 2 days by flow cytometry. In kind it is functional, cell-based. To be noted: HCT-116. For orientation: Flow cytometry measures light scatter and fluorescence of single cells or particles in a stream.
Data set [7] is described as follows: Growth inhibition of human HCT116 cells after 5 days by SRB assay. To be noted: HCT-116, 120 h. In kind it is functional.
Another data set deals with MDA-MB-468. In words: Growth inhibition of human MDA-MB-468 cells after 5 days by SRB assay. In kind it is functional. To be noted: MDA-MB-468, 120 h.

Structures are written as SMILES. In brackets after ≈: the same amount, converted by molar mass. Activity calls are given as the source filed them. The rule behind the calls is not given here.

Sequence of Cytochrome P450 2D6 (P10635 whole entry): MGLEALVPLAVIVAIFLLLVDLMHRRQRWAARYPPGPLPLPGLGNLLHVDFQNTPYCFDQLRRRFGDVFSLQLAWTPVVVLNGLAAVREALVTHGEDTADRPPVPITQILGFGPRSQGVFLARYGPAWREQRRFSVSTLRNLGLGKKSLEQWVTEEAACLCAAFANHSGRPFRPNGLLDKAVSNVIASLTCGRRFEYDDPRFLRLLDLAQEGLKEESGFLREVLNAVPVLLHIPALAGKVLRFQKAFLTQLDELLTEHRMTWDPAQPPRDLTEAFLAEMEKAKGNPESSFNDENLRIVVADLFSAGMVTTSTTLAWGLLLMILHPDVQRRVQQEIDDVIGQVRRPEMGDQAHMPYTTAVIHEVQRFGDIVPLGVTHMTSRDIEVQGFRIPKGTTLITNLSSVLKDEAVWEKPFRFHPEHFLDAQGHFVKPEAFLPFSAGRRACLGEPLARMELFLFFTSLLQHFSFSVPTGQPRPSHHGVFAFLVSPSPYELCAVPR
Sequence of Cytochrome P450 2C19 (P33261 whole entry): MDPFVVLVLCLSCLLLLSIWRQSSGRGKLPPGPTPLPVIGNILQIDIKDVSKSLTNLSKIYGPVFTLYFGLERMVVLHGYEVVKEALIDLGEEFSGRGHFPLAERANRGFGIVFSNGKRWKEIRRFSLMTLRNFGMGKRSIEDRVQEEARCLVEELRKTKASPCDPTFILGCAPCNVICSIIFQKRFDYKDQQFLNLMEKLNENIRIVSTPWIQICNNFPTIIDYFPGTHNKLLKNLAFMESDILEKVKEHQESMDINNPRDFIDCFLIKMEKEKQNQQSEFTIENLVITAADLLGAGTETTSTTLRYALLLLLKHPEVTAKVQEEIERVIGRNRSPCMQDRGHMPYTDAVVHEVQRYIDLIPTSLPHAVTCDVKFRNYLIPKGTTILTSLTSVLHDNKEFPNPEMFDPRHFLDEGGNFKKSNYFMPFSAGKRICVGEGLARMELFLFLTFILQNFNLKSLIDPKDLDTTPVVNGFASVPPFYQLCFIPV
Sequence of Serine/threonine-protein kinase PLK1 (P53350 whole entry): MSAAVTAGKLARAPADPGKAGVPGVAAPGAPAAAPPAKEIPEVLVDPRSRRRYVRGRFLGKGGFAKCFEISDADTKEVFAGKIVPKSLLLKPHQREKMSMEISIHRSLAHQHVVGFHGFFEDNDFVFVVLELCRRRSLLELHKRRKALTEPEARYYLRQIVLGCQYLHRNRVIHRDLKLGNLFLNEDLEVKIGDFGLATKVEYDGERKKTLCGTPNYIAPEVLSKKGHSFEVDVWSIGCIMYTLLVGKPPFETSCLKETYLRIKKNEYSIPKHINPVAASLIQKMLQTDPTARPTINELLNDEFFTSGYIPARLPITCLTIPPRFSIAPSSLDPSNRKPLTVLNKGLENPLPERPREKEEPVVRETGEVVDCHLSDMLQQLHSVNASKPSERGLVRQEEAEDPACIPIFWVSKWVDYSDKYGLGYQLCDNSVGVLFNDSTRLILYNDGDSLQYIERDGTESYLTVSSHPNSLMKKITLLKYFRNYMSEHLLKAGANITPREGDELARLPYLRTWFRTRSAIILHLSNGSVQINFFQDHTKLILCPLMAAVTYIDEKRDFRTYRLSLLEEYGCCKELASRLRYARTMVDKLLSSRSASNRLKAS
Sequence of Cytochrome P450 2C9 (P11712 whole entry): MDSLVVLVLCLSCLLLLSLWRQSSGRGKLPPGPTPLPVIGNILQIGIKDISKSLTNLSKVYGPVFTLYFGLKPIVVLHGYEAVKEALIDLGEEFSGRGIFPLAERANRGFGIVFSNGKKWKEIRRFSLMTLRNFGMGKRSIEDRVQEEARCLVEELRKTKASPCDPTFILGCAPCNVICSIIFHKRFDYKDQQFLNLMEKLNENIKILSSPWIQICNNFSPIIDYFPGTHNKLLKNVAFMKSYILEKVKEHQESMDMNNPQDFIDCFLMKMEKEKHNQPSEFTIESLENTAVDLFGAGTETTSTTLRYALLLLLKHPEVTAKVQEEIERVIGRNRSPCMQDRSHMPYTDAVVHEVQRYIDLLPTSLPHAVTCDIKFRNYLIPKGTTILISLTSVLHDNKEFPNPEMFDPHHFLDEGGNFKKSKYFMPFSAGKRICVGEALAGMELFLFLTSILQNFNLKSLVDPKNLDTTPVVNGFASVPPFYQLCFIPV
Sequence of Cytochrome P450 3A4 (P08684 whole entry): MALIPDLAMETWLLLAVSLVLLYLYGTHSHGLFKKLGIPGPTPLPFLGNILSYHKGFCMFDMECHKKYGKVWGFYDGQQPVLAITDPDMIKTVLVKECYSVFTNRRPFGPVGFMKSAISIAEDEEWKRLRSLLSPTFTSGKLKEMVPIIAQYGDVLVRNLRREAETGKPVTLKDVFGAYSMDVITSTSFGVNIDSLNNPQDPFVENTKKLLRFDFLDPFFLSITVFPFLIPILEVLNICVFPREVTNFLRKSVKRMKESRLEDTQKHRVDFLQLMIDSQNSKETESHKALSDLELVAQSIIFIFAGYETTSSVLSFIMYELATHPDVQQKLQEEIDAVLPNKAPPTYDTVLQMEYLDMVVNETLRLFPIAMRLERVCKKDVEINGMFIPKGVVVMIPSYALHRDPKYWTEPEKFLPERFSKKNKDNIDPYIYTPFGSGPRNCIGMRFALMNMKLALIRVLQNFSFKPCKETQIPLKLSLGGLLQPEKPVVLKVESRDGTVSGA
Sequence of Serine/threonine-protein kinase Chk2 (O96017 whole entry): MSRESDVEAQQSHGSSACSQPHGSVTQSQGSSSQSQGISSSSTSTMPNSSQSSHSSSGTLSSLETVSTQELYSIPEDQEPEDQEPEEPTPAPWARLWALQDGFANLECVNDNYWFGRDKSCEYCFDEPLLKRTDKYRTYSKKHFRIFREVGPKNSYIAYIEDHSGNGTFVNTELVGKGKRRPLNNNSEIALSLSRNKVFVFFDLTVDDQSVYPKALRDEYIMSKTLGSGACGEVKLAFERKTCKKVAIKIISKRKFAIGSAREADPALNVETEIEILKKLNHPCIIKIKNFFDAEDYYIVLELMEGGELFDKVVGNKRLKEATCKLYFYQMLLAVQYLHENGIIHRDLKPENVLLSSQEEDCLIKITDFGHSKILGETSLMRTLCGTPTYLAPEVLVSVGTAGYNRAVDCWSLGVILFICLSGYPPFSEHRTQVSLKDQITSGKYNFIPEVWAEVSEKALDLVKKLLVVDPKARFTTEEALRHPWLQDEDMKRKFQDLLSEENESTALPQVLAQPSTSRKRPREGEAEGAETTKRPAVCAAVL
Sequence of Aurora kinase B (Q96GD4 whole entry): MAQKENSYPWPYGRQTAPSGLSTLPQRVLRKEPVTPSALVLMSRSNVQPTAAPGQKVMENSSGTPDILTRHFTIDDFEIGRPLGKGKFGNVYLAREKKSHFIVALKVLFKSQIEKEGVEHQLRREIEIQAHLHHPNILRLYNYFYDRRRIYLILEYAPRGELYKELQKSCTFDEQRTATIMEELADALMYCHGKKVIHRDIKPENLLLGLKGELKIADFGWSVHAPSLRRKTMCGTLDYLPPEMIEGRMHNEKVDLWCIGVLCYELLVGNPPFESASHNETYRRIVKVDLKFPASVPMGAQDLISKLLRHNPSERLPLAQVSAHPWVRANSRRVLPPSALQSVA

With `NS(=O)(=O)c1cccc(-c2n[nH]c3ccc(NC(=O)C(c4ccsc4)N4CCCC4)cc23)c1` (racemic), the IC50 in [1] was over 50000 nM; in data set [2] it was 89 nM; at Aurora kinase A, 900 nM; at Aurora kinase B, 720 nM; in [3], 100 nM; against Cytochrome P450 2C19 it was 5300 nM. Besides, the IC50 on Cytochrome P450 3A4 was 4000 nM; at Cytochrome P450 2C9, 900 nM; on Cytochrome P450 1A2, over 10000 nM; against Cytochrome P450 2D6, 10000 nM. Besides, the Papp in data set [4] is 4.2 ×10⁻⁶ cm/s. The compound further registered a solubility in [5] of 9 µg/mL (≈ 18.7 µM). Besides, in data set [6], the outcome was Active. In addition, the GI50 in [7] stood at 70 nM; in the data set on MDA-MB-468, 90 nM.
In the case of `CCc1ccccc1C(C(=O)Nc1ccc2[nH]nc(-c3cccc(S(N)(=O)=O)c3)c2c1)N(C)C` (racemic), the IC50 in data set [1] is over 50000 nM; in data set [2], 83 nM; on Aurora kinase A, 400 nM; at Aurora kinase B, 480 nM; in data set [3] it was 420 nM; on Cytochrome P450 2C19 it was 2300 nM. The IC50 at Cytochrome P450 3A4 is 700 nM; at Cytochrome P450 2C9 it was 2500 nM; on Cytochrome P450 1A2, over 10000 nM; at Cytochrome P450 2D6 it was 5000 nM. Further, the Papp in [4] amounted to 19 ×10⁻⁶ cm/s. In data set [5], this compound had a solubility of 1.4 µg/mL (≈ 2.93 µM). For the same compound, the result in data set [6] was Active. The figures for the GI50 (in [7]; in the data set with MDA-MB-468) were 100 nM and 660 nM, respectively.

For orientation: IC50 means the point on the concentration scale where inhibition reaches its midpoint. The low end stands for greater potency in that assay, the high end for weaker potency in that assay. As a reminder, the solubility is how much of the substance goes into solution per volume. The low end stands for a poorly soluble substance, the high end for a readily soluble substance. As a reminder, the GI50 is the concentration at which growth is held to half of that of the control. Read a low GI50 as more potent growth inhibition.

For the origin of these results see ChEMBL document CHEMBL3352261, “Discovery of inhibitors of the mitotic kinase TTK based on N-(3-(3-sulfamoylphenyl)-1H-indazol-5-yl)-acetamides and carboxamides” (Bioorg Med Chem, 2014).
